ChEMBL document CHEMBL1201862, “PubChem BioAssay data set” (2004)
One block for each molecule: values may come before it. Activity calls are given as the source filed them.

Key:
[1] = target: T1, Sentrin-specific protease 8 (Homo sapiens, UniProt Q96LD8); experiment: inhibition of human SENP8 cleavage activity – biochemical, luminescence, SAR follow-up (AID 504501); format: functional
T1 sequence (Q96LD8 whole entry): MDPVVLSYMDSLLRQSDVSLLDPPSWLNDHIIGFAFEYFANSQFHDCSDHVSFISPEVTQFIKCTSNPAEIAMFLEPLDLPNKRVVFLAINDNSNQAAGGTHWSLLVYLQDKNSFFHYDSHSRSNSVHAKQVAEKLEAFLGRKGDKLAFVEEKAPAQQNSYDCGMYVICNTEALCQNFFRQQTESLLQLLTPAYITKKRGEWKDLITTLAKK

Caspase-3 = target: T2, Caspase-3 (Homo sapiens, UniProt P42574); experiment: SAR Analysis of small molecule inhibitors of Sentrin-specific proteases (SENPs) using a Caspase-3 Selectivity assay. [Related pubchem assays (depositor defined):AID2540, AID2599, AID434973, AID489001]; format: functional
T2 sequence (P42574 whole entry): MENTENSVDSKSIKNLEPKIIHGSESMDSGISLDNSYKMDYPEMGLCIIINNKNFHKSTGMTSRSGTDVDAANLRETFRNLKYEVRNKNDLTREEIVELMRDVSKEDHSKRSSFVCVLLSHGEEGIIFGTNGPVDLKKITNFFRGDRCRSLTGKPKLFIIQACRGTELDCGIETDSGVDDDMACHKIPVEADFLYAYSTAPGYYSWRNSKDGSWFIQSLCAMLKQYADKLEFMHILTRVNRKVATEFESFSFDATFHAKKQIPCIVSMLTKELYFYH

[2] = target: T3, Sentrin-specific protease 6 (Homo sapiens, UniProt Q9GZR1); experiment: SAR Analysis of small molecule inhibitors of Sentrin-specific protease 6 (SENP6) using a Luminescent assay. [Related pubchem assays (depositor defined):AID2582, AID2599]; format: functional
T3 sequence (Q9GZR1 whole entry): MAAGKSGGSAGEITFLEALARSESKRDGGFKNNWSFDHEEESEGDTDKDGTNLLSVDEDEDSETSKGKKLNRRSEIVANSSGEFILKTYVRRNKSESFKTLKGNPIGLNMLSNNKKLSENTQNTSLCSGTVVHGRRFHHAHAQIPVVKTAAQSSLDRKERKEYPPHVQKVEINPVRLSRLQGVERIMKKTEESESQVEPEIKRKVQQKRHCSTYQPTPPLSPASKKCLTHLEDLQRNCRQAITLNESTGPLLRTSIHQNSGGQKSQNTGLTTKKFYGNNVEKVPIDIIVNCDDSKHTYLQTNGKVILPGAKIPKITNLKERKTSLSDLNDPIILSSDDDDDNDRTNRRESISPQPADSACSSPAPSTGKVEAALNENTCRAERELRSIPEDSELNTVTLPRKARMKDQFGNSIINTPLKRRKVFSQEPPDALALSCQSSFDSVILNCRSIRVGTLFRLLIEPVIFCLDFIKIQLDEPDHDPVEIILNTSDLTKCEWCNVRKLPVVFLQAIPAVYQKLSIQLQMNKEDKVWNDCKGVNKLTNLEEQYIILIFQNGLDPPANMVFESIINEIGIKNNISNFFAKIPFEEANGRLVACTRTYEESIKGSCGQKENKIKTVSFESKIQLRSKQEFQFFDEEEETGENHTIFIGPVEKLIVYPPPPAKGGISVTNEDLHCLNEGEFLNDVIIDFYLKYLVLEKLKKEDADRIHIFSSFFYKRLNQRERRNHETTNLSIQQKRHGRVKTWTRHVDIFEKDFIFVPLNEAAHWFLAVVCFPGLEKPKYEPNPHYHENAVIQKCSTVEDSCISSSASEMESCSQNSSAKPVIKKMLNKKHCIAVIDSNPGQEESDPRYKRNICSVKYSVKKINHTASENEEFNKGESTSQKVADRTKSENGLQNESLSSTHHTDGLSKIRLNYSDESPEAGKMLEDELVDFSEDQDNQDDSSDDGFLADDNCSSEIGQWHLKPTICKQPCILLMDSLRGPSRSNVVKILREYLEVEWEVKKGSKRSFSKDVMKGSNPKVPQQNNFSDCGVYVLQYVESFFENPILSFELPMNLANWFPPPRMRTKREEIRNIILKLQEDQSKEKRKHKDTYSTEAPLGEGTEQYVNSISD

[3] = target: T4, Sentrin-specific protease 7 (Homo sapiens, UniProt Q9BQF6); experiment: inhibition of human SENP7 cleavage activity – biochemical, luminescence, SAR follow-up (AID 504497); format: functional
T4 sequence (Q9BQF6 whole entry): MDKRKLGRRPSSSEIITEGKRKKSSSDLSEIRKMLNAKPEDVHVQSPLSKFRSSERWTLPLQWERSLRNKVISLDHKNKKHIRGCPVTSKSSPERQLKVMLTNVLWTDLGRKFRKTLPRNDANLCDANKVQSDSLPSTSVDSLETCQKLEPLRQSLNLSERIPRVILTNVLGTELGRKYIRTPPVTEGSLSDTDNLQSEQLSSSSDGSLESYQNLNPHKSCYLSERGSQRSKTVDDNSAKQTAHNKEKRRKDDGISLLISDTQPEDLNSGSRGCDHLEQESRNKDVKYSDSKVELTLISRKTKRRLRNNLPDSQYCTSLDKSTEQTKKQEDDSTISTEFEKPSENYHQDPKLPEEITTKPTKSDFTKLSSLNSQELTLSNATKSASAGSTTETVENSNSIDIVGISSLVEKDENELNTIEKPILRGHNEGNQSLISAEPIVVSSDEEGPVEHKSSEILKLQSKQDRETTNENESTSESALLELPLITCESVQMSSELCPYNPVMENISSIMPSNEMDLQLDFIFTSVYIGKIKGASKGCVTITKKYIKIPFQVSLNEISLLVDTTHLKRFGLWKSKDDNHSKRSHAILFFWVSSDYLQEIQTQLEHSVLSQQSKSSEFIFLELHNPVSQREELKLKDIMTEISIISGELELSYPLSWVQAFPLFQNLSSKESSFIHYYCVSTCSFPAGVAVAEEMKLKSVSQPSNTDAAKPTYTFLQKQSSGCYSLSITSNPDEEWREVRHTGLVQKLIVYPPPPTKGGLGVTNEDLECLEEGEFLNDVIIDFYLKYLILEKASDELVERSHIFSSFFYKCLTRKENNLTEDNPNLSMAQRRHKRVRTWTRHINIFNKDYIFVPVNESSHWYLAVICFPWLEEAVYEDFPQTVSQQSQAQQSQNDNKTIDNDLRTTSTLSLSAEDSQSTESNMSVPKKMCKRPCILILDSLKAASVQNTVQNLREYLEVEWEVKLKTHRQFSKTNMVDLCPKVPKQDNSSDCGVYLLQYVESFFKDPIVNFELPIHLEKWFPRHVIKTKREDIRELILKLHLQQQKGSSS

Coagulation factor XII = target: T5, Coagulation factor XII (Homo sapiens, UniProt P00748); format: functional;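 note: activated factor XIIa alpha cleaving a fluorogenic AMC peptide substrate; inhibitor potency from loss of enzyme activity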
T5 sequence (P00748 whole entry): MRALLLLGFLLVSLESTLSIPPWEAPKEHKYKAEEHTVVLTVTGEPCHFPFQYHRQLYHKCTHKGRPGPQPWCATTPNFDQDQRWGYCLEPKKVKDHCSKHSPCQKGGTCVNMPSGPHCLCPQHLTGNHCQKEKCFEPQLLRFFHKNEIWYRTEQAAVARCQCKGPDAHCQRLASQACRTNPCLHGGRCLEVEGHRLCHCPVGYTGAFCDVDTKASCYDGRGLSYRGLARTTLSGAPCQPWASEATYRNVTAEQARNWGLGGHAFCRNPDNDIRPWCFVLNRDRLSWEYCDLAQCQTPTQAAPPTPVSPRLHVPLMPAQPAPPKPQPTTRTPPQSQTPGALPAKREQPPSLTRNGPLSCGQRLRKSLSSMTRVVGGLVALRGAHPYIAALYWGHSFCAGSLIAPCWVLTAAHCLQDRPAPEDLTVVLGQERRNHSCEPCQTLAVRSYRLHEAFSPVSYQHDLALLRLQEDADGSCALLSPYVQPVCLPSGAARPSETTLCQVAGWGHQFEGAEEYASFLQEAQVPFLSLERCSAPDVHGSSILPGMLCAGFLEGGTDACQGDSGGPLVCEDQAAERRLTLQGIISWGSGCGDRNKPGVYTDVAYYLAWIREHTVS

Insulin-degrading enzyme [4] = target: T6, Insulin-degrading enzyme (Homo sapiens, UniProt P14735); experiment: recombinant IDE activation, cell-free – biochemical, fluorescence polarization, counter-screen for IDE activator project, dose response (AID 588681)
T6 sequence (P14735 whole entry): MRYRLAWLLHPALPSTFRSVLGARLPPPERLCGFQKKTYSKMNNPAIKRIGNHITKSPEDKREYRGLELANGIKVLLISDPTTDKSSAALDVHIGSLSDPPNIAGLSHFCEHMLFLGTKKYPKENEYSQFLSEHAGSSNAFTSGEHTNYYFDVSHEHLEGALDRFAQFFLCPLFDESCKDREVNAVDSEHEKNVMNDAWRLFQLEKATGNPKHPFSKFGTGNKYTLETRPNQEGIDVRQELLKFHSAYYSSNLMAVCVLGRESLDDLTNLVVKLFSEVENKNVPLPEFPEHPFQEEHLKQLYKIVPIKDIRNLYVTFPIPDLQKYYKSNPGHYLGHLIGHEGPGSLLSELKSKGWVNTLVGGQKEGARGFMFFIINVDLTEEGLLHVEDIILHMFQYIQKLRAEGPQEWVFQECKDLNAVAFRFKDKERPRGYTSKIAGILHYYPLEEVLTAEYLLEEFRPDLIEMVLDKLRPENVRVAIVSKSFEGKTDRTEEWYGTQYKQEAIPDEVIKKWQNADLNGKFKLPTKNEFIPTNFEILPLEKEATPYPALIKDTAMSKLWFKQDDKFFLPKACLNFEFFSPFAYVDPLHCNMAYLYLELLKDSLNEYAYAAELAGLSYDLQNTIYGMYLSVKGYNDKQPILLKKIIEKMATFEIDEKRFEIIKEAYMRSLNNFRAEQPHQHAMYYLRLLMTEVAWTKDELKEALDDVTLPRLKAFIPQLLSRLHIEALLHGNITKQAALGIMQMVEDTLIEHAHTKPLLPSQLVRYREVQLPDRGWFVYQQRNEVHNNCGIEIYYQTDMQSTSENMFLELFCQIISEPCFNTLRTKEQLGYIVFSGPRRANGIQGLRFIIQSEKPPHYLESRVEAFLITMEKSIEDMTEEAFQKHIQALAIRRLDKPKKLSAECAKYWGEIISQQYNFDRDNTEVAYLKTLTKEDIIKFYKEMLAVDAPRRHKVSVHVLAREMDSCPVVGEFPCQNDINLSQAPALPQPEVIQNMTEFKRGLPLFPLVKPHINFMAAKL

Insulin-degrading enzyme [5] = target: T6, Insulin-degrading enzyme; experiment: cellular IDE activation of Abeta substrate cleavage – fluorescence polarization, HEK cells, dose response (AID 588439); format: functional, cell-based
HEK293 [6] = experiment: membrane integrity loss in HEK cells – cell-based, fluorescence, cytotoxicity control for IDE activator project, dose response (AID 588440); format: functional; conditions: Homo sapiens;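 note: cytotoxicity by LDH release measuring loss of membrane integrity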
HEK293 [7] = experiment: optical interference in Abeta FP readout, dose response, artefact control for IDE activator project, biochemical, fluorescence polarization (AID 588442); format: functional, cell-based; conditions: Homo sapiens
Melanocortin receptor 4 = Melanocortin receptor 4 (Homo sapiens, UniProt P32245); experiment: inhibitors of MC4R cAMP signaling – cell-based, TR-FRET, biased antagonists, dose response (AID 602298); format: functional;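 note: antagonist potency against agonist-stimulated cAMP production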
Sequence of Melanocortin receptor 4 (P32245 whole entry): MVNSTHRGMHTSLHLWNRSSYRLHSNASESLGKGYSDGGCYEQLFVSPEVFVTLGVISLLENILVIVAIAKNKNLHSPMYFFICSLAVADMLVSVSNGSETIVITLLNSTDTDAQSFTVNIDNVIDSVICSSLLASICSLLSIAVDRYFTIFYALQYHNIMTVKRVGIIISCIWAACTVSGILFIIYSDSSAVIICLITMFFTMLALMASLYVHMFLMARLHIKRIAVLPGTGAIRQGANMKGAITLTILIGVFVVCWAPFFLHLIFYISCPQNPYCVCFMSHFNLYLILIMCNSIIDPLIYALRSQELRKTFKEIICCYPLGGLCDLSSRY

[8] = cAMP pathway inhibition in counterscreen cell line – TR-FRET cAMP detection, counter-screen for MC4R biased antagonist project, dose response (AID 602305); format: functional, cell-based;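 note: U2OS cells stimulated with forskolin near its EC80 as the cAMP inducer; potency is for inhibition of forskolin-stimulated cAMP signaling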

IC50 (Caspase-3): > 99 µM (inactive)
IC50 [2]: > 99 µM (inactive)
IC50 [3]: > 99 µM (inactive)
Structure (SMILES): CS(=O)(=O)c1ccc(N/N=C/c2cn(Cc3ccccc3)c3ccccc23)cc1
IC50 [1]: > 99 µM (inactive)

Structure (SMILES): COc1ccc(C(=O)N/N=C/c2cc3ccccc3nc2O)cc1
IC50 (Coagulation factor XII): > 50 µM (inactive)
EC50 (Insulin-degrading enzyme [4]): > 54.7 µM (inactive)
EC50 (Insulin-degrading enzyme [5]): > 54.7 µM (inactive)
IC50 (HEK293 [6]): > 89.1 µM (inactive)
EC50 (HEK293 [7]): > 55.9 µM (inactive)

Structure (SMILES): CC(=N)C1=C(O)C2(C)C(=CC1=O)Oc1c(C(C)=O)c(O)c(C)c(O)c12 (stereo unspecified)
IC50 (Melanocortin receptor 4): > 64.6 µM (inactive)
IC50 [8]: > 64.6 µM (inactive)
